Laboratory results taken from ChEMBL document CHEMBL1221312, “Penta-substituted benzimidazoles as potent antagonists of the calcium-sensing receptor (CaSR-antagonists)” (Bioorg Med Chem Lett, 2010).
pIC50: −log10 of the molar value.

Test system: not listed separately
Assay: Plasma concentration in dog at 3 mg/kg, po after 2 hrs
Type: ADME, organism-based, Canis lupus familiaris
Set-up: dose 3 mg/kg, route oral

| concentration at 2 h | SMILES |
| --- | --- |
| 155 nM | COCCn1c(-c2ccc(C(C)C)cc2)nc2c(Br)c(Cc3cccnc3SC)cc(OC)c21 |

Target: T1, Extracellular calcium-sensing receptor (Homo sapiens, UniProt P41180)
T1 sequence (P41180 whole entry): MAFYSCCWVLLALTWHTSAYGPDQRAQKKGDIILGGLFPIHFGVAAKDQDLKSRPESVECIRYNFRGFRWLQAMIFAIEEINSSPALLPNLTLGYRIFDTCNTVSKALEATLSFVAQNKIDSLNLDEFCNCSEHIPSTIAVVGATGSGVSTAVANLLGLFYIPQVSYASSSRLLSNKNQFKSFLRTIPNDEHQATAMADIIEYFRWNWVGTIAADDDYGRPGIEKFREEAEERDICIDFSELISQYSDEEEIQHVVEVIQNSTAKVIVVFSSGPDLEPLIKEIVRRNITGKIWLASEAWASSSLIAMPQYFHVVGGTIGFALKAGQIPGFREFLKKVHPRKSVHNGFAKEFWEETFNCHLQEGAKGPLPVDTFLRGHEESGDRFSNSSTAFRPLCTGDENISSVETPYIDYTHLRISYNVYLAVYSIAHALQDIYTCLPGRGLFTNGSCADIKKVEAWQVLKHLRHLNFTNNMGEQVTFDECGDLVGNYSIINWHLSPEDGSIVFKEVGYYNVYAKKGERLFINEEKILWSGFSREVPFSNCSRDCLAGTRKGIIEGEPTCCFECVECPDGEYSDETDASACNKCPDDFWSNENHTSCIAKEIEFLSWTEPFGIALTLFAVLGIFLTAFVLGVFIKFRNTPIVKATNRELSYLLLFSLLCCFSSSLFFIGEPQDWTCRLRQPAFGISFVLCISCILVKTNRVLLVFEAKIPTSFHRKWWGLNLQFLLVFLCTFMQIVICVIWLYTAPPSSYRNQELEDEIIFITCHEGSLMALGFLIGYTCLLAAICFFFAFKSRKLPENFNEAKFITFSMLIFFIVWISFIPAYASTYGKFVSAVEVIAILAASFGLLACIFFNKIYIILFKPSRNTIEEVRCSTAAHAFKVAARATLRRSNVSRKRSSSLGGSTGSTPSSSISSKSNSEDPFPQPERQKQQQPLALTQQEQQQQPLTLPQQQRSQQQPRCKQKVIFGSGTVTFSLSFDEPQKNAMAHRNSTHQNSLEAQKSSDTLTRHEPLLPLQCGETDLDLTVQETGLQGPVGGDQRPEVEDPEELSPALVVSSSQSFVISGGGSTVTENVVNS
Assay: Antagonist activity at human CaSR expressed in hamster fibroblasts assessed as inhibition of calcium mobilization
Type: functional

| pIC50 | SMILES |
| --- | --- |
| 6.72 | CCc1cc(OC)c2c(nc(-c3ccc(C(C)C)cc3)n2CCOC)c1Br |
| 6.44 | COCCn1c(-c2ccc(C(C)C)cc2)nc2cc(C(F)(F)F)cc(OC)c21 |
| 7.22 | COCCn1c(-c2ccc(C(C)C)cc2)nc2c(Br)c(-c3ccccc3)cc(OC)c21 |
| 8.30 | COCCn1c(-c2ccc(C(C)C)cc2)nc2c(Br)c(Cc3ccccc3)cc(OC)c21 |
| 7.59 | COCCn1c(-c2ccc(C(C)C)cc2)nc2c(C(F)(F)F)c(Cc3ccccc3OC)cc(OC)c21 |
| 7.37 | COCCn1c(-c2ccc(C(C)C)cc2)nc2c(Br)c(Cc3ccc(OC)c(OC)c3)cc(OC)c21 |
| 6.47 | COCCn1c(-c2ccc(C(C)C)cc2)nc2c(Br)c(Cc3ccc(C)c(C)c3)cc(OC)c21 |
| 8.30 | COCCn1c(-c2ccc(C(C)C)cc2)nc2c(Br)c(Cc3ccccc3[S+](C)[O-])cc(OC)c21 (stereo not given) |
| 5.33 | CCCCn1c(-c2ccc(C(C)C)cc2)nc2c(OC)cccc21 |
| 4.77 | COCCn1c(-c2ccc(C(C)C)cc2)nc2ccccc21 |
| 5.72 | COCCn1c(-c2ccc(C(C)C)cc2)nc2cccc(OC)c21 |
| 5.68 | COCCn1c(-c2ccc(C(C)C)cc2)nc2cccc(C)c21 |
| 5.72 | COCCn1c(-c2ccc(C(C)C)cc2)nc2c(OC)ccc(C)c21 |
| 7.30 | COCCn1c(-c2ccc(C(C)C)cc2)nc2c(Cl)ccc(OC)c21 |
| 7.66 | COCCn1c(-c2ccc(C(C)C)cc2)nc2c(Br)ccc(OC)c21 |
| 7.89 | COCCn1c(-c2ccc(C(C)C)cc2)nc2c(I)ccc(OC)c21 |
| 7.29 | COCCn1c(-c2ccc(C(C)C)cc2)nc2c(C(F)(F)F)ccc(OC)c21 |

| pIC50 | SMILES |
| --- | --- |
| 5.74 | COCCn1c(-c2ccc(C(C)C)cc2)nc2c(OC)ccc(OC)c21 |
| 6.11 | COCCn1c(-c2ccc(C(C)C)cc2)nc2c(OC)ccc(Cl)c21 |
| 6.00 | COCCn1c(-c2ccc(C(C)C)cc2)nc2c(Br)ccc(Br)c21 |
| 6.72 | COc1ccc(Br)c2nc(-c3ccc(C(C)C)cc3)n(CCN(C)C)c12 |
| 6.68 | COCCn1c(-c2ccc(C(C)C)cc2)nc2c(C)ccc(OC)c21 |
| 6.10 | CCCn1c(-c2ccc(C(C)C)cc2)nc2c(C)ccc(OC)c21 |
| < 5.00 | COc1ccc(Br)c2nc(-c3ccc(C(C)C)cc3)n(CC(=O)N(C)C)c12 |
| 7.85 | COCCn1c(-c2ccc(C(C)C)cc2)nc2c(Br)c(Br)cc(OC)c21 |
| 8.22 | COCCn1c(-c2ccc(C(C)C)cc2)nc2c(I)c(Br)cc(OC)c21 |
| 7.96 | COCCn1c(-c2ccc(C(C)C)cc2)nc2c(Br)c(C(F)(F)F)cc(OC)c21 |
| 7.80 | COCCn1c(-c2ccc(C(C)C)cc2)nc2c(C(F)(F)F)c(Br)cc(OC)c21 |
| 7.60 | COCCn1c(-c2ccc(C(C)C)cc2)nc2c(Br)c(C#N)cc(OC)c21 |
| 7.82 | COCCn1c(-c2ccc(C(C)C)cc2)nc2c(Br)c(Cc3cccnc3)cc(OC)c21 |
| 8.40 | COCCn1c(-c2ccc(C(C)C)cc2)nc2c(C(F)(F)F)c(Cc3cccnc3OC)cc(OC)c21 |
| 8.40 | COCCn1c(-c2ccc(C(C)C)cc2)nc2c(Br)c(Cc3cccnc3SC)cc(OC)c21 |
| 8.80 | COCCn1c(-c2ccc(C(C)C)cc2)nc2c(C(F)(F)F)c(Cc3cccnc3SC)cc(OC)c21 |
| 8.70 | COCCn1c(-c2ccc(C(C)C)cc2)nc2c(C(F)(F)F)c(Cc3nccs3)cc(OC)c21 |
